Where only a bound is given, the exact number is not on record here.

One assay has as its target CYP3A4 (Homo sapiens (Human), UniProt P08684). As to the kind of experiment: Inhibition of site of metabolism of testosterone in human liver microsome CYP3A4. The class given is in vitro ADME. To be noted: 30 min. How it is done: • 1. Phosphate buffer (20×PBS, purchased from Sangon); • 2. NADPH (ACROS, A2646-71-1); • 3. Human liver microsome (Corning Gentest, Cat No. 452161, Lot No. 905002, Donor36); • 4. ABI QTrap 4000 LC-MS System (AB Sciex); • 5. ZORBAX Extend-C18, 3×50 mm, 3.5 m (Agilent, USA); • 6. CYP probe substrate (testosterone, Vocko, CAS No. [58-22-0]/75 μM) and positive control inhibitor (ketoconazole, SIGMA, Cat No. K1003-100MG).
A 100 mM PBS buffer was prepared. A 0.25 mg/mL microsome solution, a 7.5 mM MgCl2 and a 5 mM NADPH solution were prepared using the buffer. A30 mM stock solution was diluted with DMSO to obtain 30 mM, 10 mM, 3 mM, 1 mM, 0.3 mM, 0.03 mM, 0.003 mM and 0 mM serial solutions I, which were further diluted 200-fold with phosphate buffer (PBS) to obtain serial test solutions II (150, 50, 15, 5, 1.5, 0.15, 0.015 and 0 μM). A testosterone working solution was diluted with PBS to 375 μM. 40 μL of a 0.25 mg/mL microsome solution prepared in 7.5 mM MgCl2 and 20 μL of each of the 375 μM testosterone working solution and the compound working solutions (150, 50, 15, 5, 1.5, 0.15, 0.015 and 0 μM) were measured out and well mixed. […]
The IC50 value of the drug for the site of metabolism of testosterone in CYP3A4 was calculated by Graphpad Prism and is shown in Table 6.
(Liver microsomes are a subcellular fraction often used to study metabolism.)

A further assay concerns the target hERG potassium channels (Homo sapiens (Human), UniProt Q12809). As to the kind of experiment: Blocking of hERG potassium currents (automated patch clamp, HEK293-hERG). The assay is classed as cell-based. As for the experimental part:
The blocking of hERG potassium currents by the compound disclosed herein was tested in a stable cell strain transfected with hERG potassium channels using automated patch clamp.
Stably-expressed HEK293-hERG cell strains were subcultured at a density of 1:4 in an MEM/EBSS medium (10% FBS, 400 μg/mL G418, 1% MEM non-essential amino acid solution (100×), and 1% sodium pyruvate solution) and subjected to an automated patch clamp experiment within 48-72 h after the start of the culture. On the day of the experiment, the cells were digested with 0.25% pancreatin, then centrifuged, collected, and resuspended in an extracellular fluid (140 mM NaCl, 4 mM KCl, 1 mM MgCl2, 2 mM CaCl2, 5 mM D-glucose monohydrate, 10 mM Hepes, pH 7.4, 298 mOsm) to form a cell suspension. The cell suspension was placed on the cell bank of the Patchliner instrument that transferred the cells to the chip (NPC-16) using a negative pressure controller. The negative pressure drew individual cells to the wells of the chip. […] Data were recorded and analyzed using the HEAK Patchmaster, HEAK EPC10 patch clamp amplifier (Nanion), Pathliner software and Pathcontrol HTsoftware, and the current of the compound at each concentration and the current of the blank control were analyzed.

Another assay concerns the target ER (estrogen receptor) (Homo sapiens (Human), UniProt P03372). Kind of assay: Inhibition of binding of E to ER (MCF-7/ERE-luciferase reporter). The assay is classed as cell-based. The note with it: MCF-7/ERE-luciferase cells, 0.1 nM estradiol, 24 h; read-out: IC50, inhibitory effect on the binding of E to ER. As for the experimental part: The compound of the present disclosure can inhibit the binding of E (estrogen) to ER (estrogen receptor), thereby blocking the binding of the complex of E and ER to ERE (estrogen response element), and consequently the expression of downstream luciferase proteins. The inhibitory effect of the compound of the present disclosure on the binding of E to ER was tested by using the following method.
An ERE was cloned upstream of the luciferase gene, and MCF-7/ERE-luciferase monoclonal cells were selected by transfection of MCF-7 (TCHu74, National Collection of Authenticated Cell Cultures). The MCF-7/ERE-luciferase cells were seeded into a 96-well plate with an MEM (hyclone, SH30024.01B) medium containing 10% charcoal stripped FBS (Moregate, FBSF), 1% sodium pyruvate (sigma, S8636), 1% non-essential amino acids (sigma, M7145) and 500 μg/mL G418 at a density of 30,000 cells/well and cultured at 37° C. with 5% CO2. […] The plate was let stand at room temperature in the dark for 10-15 min, and the chemiluminescence signal value was determined.
The inhibitory effect of the compound of the present disclosure on the binding of E to ER was determined through the above experiment. The chemiluminescence signal value was analyzed against the compound concentration (in log form) using Graphpad Prism, and the IC50 value of the compound was obtained.
For orientation: In a reporter assay the amount or activity of a reporter protein is the signal.

Sequence of CYP3A4 (P08684 whole entry): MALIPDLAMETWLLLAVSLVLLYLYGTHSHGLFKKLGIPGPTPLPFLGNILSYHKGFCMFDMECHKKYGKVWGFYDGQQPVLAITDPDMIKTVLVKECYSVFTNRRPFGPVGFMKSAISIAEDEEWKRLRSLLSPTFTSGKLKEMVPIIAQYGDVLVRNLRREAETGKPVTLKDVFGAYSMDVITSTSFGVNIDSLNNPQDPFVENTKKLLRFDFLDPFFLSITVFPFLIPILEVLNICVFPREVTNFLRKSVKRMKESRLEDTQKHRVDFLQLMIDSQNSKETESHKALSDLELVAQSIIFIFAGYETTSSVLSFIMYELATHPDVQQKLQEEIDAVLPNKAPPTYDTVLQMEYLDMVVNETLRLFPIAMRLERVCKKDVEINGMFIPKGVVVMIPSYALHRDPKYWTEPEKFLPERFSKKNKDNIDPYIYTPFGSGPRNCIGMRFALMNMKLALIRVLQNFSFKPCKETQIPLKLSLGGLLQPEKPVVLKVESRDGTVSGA
Sequence of ER (estrogen receptor) (P03372 whole entry): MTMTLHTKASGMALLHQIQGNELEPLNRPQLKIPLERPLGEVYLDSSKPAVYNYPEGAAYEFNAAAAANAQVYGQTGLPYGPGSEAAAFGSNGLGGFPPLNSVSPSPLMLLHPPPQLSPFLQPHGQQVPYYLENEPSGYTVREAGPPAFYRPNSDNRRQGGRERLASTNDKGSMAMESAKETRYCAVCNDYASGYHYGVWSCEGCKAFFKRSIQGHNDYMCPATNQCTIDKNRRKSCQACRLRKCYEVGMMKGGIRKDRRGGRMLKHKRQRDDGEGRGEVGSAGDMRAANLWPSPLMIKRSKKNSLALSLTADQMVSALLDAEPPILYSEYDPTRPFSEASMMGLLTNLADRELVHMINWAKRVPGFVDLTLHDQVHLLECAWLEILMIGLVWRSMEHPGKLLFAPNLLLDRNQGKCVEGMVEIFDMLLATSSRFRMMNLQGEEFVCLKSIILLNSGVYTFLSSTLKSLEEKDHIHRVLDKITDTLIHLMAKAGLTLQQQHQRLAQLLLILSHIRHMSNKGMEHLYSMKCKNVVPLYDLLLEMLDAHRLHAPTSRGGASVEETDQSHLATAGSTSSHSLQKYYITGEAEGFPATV
Sequence of hERG potassium channels (Q12809 whole entry): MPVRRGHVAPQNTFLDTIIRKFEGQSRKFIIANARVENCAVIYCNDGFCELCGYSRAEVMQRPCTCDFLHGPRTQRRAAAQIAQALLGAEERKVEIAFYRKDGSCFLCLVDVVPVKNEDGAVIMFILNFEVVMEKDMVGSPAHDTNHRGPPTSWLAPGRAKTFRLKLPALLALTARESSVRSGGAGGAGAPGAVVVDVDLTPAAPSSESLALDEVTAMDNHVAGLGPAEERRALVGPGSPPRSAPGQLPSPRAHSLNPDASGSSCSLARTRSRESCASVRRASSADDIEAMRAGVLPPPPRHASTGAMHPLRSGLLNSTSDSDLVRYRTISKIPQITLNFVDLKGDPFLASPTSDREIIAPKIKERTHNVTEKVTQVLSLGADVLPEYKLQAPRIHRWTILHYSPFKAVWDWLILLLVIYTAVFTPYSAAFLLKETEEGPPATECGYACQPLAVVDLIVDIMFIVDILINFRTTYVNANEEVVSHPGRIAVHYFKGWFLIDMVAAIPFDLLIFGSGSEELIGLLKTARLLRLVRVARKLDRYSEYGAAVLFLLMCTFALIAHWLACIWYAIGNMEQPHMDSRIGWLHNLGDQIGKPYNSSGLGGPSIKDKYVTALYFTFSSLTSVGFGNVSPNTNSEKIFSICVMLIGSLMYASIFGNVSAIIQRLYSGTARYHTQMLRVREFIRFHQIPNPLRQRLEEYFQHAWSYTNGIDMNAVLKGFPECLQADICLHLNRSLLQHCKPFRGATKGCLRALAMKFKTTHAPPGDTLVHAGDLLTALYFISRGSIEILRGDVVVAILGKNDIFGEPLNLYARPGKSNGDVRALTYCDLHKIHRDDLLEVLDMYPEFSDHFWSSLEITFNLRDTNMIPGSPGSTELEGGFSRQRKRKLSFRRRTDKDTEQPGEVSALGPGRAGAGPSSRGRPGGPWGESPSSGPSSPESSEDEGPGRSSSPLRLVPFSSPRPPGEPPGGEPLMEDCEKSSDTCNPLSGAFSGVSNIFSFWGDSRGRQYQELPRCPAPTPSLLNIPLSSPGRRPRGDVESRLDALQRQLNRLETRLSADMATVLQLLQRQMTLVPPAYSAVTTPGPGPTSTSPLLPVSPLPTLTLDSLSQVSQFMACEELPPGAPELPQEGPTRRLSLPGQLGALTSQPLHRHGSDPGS

As to `[2H]C1([2H])Oc2cc3c(cc2O1)[C@@H](c1ccc(NC2CN(CCCF)C2)cn1)N(CC(F)(F)CO)[C@H](C)C3` [Compound 1, 2,2-Difluoro-3-((5S,7R)-5-(5-((1-(3-fluoropropyl)azetidin-3-yl)amino)pyridin-2-yl)-7-methyl-7,8-dihydro-[1,3]dioxolo[4,5-g]isoquinolin-6(5H)-yl-2,2-d2)propan-1-ol], the results for the IC50 on CYP3A4, against hERG potassium channels and on ER (estrogen receptor) were over 30 µM, over 30 µM and 0.00069 µM, respectively.

The term IC50 denotes the concentration needed to halve the response being measured.

The record behind these values is patent publication US20240374581A1, “SALT TYPES OF TRICYCLIC TETRAHYDRO ISOQUINOLINE DERIVATIVE” (JIANGSU HENGRUI PHARMACEUTICALS CO., LTD., priority 2021, published 2024).
